The values that follow come from patent publication US20200407712A1, “ARRAY-BASED CYCLIC PEPTIDE LIBRARIES” (HealthTell Inc., priority 2018, published 2020).

Data set [1] can be described thus: intramolecular disulfide formation by ambient air oxidation of bis-Cys peptides on SiO2 array surface after side-chain deprotection (TFA/TMS-OTf) and NH3-gas DKP detachment; fraction oxidized from MALDI relative peak intensities. Conditions: the molecule shown is the open-chain precursor; 14-membered ring; none (dry film on SiO2, ambient air); other; 18.0 h; scale: fraction oxidized.

Data set [2] deals with Ferredoxin NADP+ Reductase (FNR). The experiment in a line: FNR counter screen on linear and lactam constrained peptide microarrays. The note with it: 10.0 nM protein applied to the array; for FNR Lactam, log 10 transformed median intensity: lactam constrained library peptide; for FNR Linear, log 10 transformed median intensity: linear library peptide. It is filed as binding. The text has this: (§1) Diaphorase is NAD(P)H dehydrogenase (UniProtKB: P15559) encoded by the NQO1 gene. Diaphorase has utility as a model enzyme; for which peptide based synthetic affinity agents to diaphorase are required. A 3.3 million feature peptide array was used to identify potential binding partner peptides for diaphorase. Ferredoxin NADP+ Reductase (FNR) and Ferredoxin are included as counter screens for a specific application, while immunoglobulin depleted human serum (Non-Immunoglobulin Serum Components or NISC) was used as a complex mixture to control for generally sticky peptides.
(§2) Peptide arrays were prepared for protein binding by pretreating the arrays in PBST for 30 min at […]. Direct labeled diaphorase (Alexa Fluor™ 555), direct labeled FNR (Alexa Fluor™ 555) and biotinylated ferredoxin were applied to the arrays at 1.0 and 10.0 nM along with direct labeled NISC at 0.001 mg/mL for 1 hr at 37° C. Arrays were washed 3× with PBST and Streptavidin-Alexa Fluor™ 555 was applied to the biotinylated ferredoxin and streptavidin alone arrays. All other arrays received PBST and were incubated for 1 hr at 37° C. Arrays were washed with PBST and p53Ab1-Alexa Fluor™ 647 applied to all arrays to illuminate the edge fiducials for 10 min at 37° C. Following the final incubation arrays were washed in PBST and water, dried and imaged on the ImageXpress ([…]). Triplicate arrays were used for the subsequent analysis except for when rejection of an array was necessary due to the presence of artifacts. Data were analyzed using a custom R script.
Background: A counterscreen serves to expose hits that act by an unwanted route or on another target.

Data set [3] addresses T1, human diaphorase (NQO1) (Homo sapiens, UniProt P15559).
T1 construct: purchased SigmaAldrich
The experiment in a line: Alexa Fluor 555-diaphorase binding to linear and lactam constrained peptide microarrays. The note with it: 10.0 nM protein applied to the array; for Diaphorase Lactam, log 10 transformed median intensity: lactam constrained library peptide; for Diaphorase Linear, log 10 transformed median intensity: linear library peptide.
Description: as §1
Two wafers from the same synthesis batch were obtained where one wafer was prepared with the lactam chemistry and constrained into a cyclized form. The degree of cyclization was confirmed using the biotinylation assay described in Examples 9, 17, and 19.
as §2
Intensities plotted are the log 10 transformed median intensity from replicate arrays. Coloring of the points represents the density of features at that intensity using a gray-scale map. Light grey represents areas of low peptide numbers while black represents the intensity having the highest number of peptides. The diagonal line is equivalence line. […] CLUSTAL sequence alignment (FIG. 27B) of the sequences indicated similarities in amino acid composition. Highlighted amino acids are conserved in over 60% of the peptides for that position or are a chemically similar amino acid (ie: F and Y).
The sequences contain similar amino acid usage. Four peptides having the highest degree of cyclization in the quality control assay were identified and binding intensities compared to other library peptides having one or two amino acid substitutions as shown in FIG. 28. Substitutional analysis provides confidence in the array data by indicating which residues are important for binding. Dark grey boxes highlight indicate a residue conserved in more than 60% of the peptides. Light grey boxes highlight indicate chemically similar amino acids to the conserved residue. RFI is the intensity is the median replicate log 10 intensity for the 10.0 nM Diaphorase.

Data set [4] relates to Non-Immunoglobulin Serum Components (NISC). The experiment in a line: NISC counter screen on linear and lactam constrained peptide microarrays. The data set is classed as binding, human. The note with it: 0.001 mg/mL NISC applied to the array; for NISC Lactam, log 10 transformed median intensity: lactam constrained library peptide; for NISC Linear, log 10 transformed median intensity: linear library peptide.
Description: as §1, §2
Peptides were also selected based on the difference in log 10 transformed intensities between diaphorase and NISC as the counter screen agent (LFGdiaphorase minus LFGNISC). Intensities for 10.0 nM diaphorase and 0.001 mg/mL NISC are shown in FIG. 29A where intensities plotted are the log 10 transformed median intensity from replicate arrays. Coloring of the points represents the density of features at that intensity using a grey colorscale. Light grey represents areas of low peptide numbers while black represents the intensity having the highest number of peptides. The diagonal line is equivalence line. Selectivity vs NISC was not dependent on cyclization as diaphorase also bound the linear forms for some peptides (Table 4). Three peptides having the highest degree of cyclization in the quality control assay were identified and binding intensities compared to other library peptides having one or two amino acid substitutions (FIG. 30) Each CLUSTAL alignment contains the library peptides having a maximum of two substitutions to the parent peptide. Dark grey highlights indicate a residue conserved in more than 60% of the peptides. Light grey highlights indicate chemically similar amino acids to the conserved residue. The amino acid usage is indicated in the sequence logo above the alignment. Substitutional analysis provides confidence in the array data by indicating which residues are important for binding.

For data set [5], the system named is Ferredoxin. The experiment in a line: Biotinylated ferredoxin counter screen on linear and lactam constrained peptide microarrays. The note with it: 10.0 nM biotinylated protein, detected with Streptavidin-Alexa Fluor 555; for Ferredoxin Lactam, log 10 transformed median intensity: lactam constrained library peptide; for Ferredoxin Linear, log 10 transformed median intensity: linear library peptide. It is filed as binding.
Description: as §1, §2

Data set [6] has as its target Streptavidin (Streptomyces avidinii, UniProt P22629). The experiment in a line: Streptavidin-Alexa Fluor 555 alone on linear and lactam constrained peptide microarrays. Conditions: for Streptavidin Lactam, log 10 transformed median intensity: lactam constrained library peptide; for Streptavidin Linear, log 10 transformed median intensity: linear library peptide. It is filed as binding. How it is done:
as §2

Sequence of Streptavidin (P22629 25-183, species assumed): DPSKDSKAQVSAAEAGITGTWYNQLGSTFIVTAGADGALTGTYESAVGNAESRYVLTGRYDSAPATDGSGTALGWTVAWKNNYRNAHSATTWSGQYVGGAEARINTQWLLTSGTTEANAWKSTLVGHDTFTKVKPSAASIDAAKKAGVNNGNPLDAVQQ
T1 sequence (P15559 whole entry): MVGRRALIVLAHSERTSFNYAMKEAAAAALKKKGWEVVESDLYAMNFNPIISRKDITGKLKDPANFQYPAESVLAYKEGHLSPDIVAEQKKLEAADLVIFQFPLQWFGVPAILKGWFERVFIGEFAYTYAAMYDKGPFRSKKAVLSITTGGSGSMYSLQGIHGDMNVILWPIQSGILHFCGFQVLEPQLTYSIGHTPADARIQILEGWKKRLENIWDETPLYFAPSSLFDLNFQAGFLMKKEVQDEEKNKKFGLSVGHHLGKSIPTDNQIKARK

In data set [1], `COc1cc(OC)c([P+](CC(=O)N[C@@H](CS)C(=O)N2CCC[C@H]2C(=O)NCC(=O)N[C@@H](CS)C(=O)NCCCC[C@@H]2NC(=O)[C@@H]3CCCN3C2=O)(c2c(OC)cc(OC)cc2OC)c2c(OC)cc(OC)cc2OC)c(OC)c1` gave a ring closure, fraction oxidized by MALDI of 0.77.

On to “TTLFQTPY [library array peptide, tested lactam constrained and linear]”, for which, in data set [2], the “FNR Lactam, log 10 transformed median intensity” value is 2.63 and the “FNR Linear, log 10 transformed median intensity” value turned out to be 2.54. For the same compound, in data set [3], the “Diaphorase Lactam, log 10 transformed median intensity” value was 4.45 and the “Diaphorase Linear, log 10 transformed median intensity” value was found to be 2.80. For the same compound, in data set [4], the “NISC Lactam, log 10 transformed median intensity” value stood at 3.28 and the “NISC Linear, log 10 transformed median intensity” value is recorded as 2.69. For the same compound, in data set [5], the “Ferredoxin Lactam, log 10 transformed median intensity” value is reported as 2.66 and the “Ferredoxin Linear, log 10 transformed median intensity” value stood at 2.54. Besides, in data set [6], the “Streptavidin Lactam, log 10 transformed median intensity” value is 2.53 and the “Streptavidin Linear, log 10 transformed median intensity” value amounted to 2.52.

In the case of “PGKPNTQ [library array peptide, tested lactam constrained and linear]”, in data set [2], the “FNR Lactam, log 10 transformed median intensity” value is on record as 2.54 and the “FNR Linear, log 10 transformed median intensity” value is reported as 2.7. In data set [3], the “Diaphorase Lactam, log 10 transformed median intensity” value was 4.36 and the “Diaphorase Linear, log 10 transformed median intensity” value worked out at 4.15. Moreover, in data set [4], the “NISC Lactam, log 10 transformed median intensity” value was 2.68 and the “NISC Linear, log 10 transformed median intensity” value is listed as 2.84. Besides, in data set [5], the “Ferredoxin Lactam, log 10 transformed median intensity” value turned out to be 2.55 and the “Ferredoxin Linear, log 10 transformed median intensity” value was determined as 2.63. In data set [6], the “Streptavidin Lactam, log 10 transformed median intensity” value is recorded as 2.51 and the “Streptavidin Linear, log 10 transformed median intensity” value is reported as 2.53.

As to “TTFSFSTP [library array peptide, tested lactam constrained and linear]”, in data set [2], the “FNR Lactam, log 10 transformed median intensity” value is 2.62 and the “FNR Linear, log 10 transformed median intensity” value is recorded as 2.57. Moreover, in data set [3], the “Diaphorase Lactam, log 10 transformed median intensity” value was determined as 4.47 and the “Diaphorase Linear, log 10 transformed median intensity” value was found to be 2.78. For the same compound, in data set [4], the “NISC Lactam, log 10 transformed median intensity” value is 3.33 and the “NISC Linear, log 10 transformed median intensity” value stood at 2.62. For the same compound, in data set [5], the “Ferredoxin Lactam, log 10 transformed median intensity” value is 2.69 and the “Ferredoxin Linear, log 10 transformed median intensity” value is on record as 2.58. Also, in data set [6], the “Streptavidin Lactam, log 10 transformed median intensity” value is recorded as 2.55 and the “Streptavidin Linear, log 10 transformed median intensity” value is given as 2.54.

Consider “TFGFNGFP [library array peptide, tested lactam constrained and linear]”, for which, in data set [2], the “FNR Lactam, log 10 transformed median intensity” value came to 2.59 and the “FNR Linear, log 10 transformed median intensity” value stood at 2.55. In data set [3], the “Diaphorase Lactam, log 10 transformed median intensity” value is 4.49 and the “Diaphorase Linear, log 10 transformed median intensity” value was 2.84. Moreover, in data set [4], the “NISC Lactam, log 10 transformed median intensity” value was found to be 3.49 and the “NISC Linear, log 10 transformed median intensity” value came to 2.62. In data set [5], the “Ferredoxin Lactam, log 10 transformed median intensity” value came to 2.70 and the “Ferredoxin Linear, log 10 transformed median intensity” value worked out at 2.55. In data set [6], the “Streptavidin Lactam, log 10 transformed median intensity” value is on record as 2.53 and the “Streptavidin Linear, log 10 transformed median intensity” value was found to be 2.52.

With “QPQSQQSQ [library array peptide, tested lactam constrained and linear]”, in data set [2], the “FNR Lactam, log 10 transformed median intensity” value was determined as 2.55 and the “FNR Linear, log 10 transformed median intensity” value came to 2.55. Moreover, in data set [3], the “Diaphorase Lactam, log 10 transformed median intensity” value amounted to 4.28 and the “Diaphorase Linear, log 10 transformed median intensity” value worked out at 3.42. In addition, in data set [4], the “NISC Lactam, log 10 transformed median intensity” value was determined as 2.59 and the “NISC Linear, log 10 transformed median intensity” value is on record as 2.59. Further, in data set [5], the “Ferredoxin Lactam, log 10 transformed median intensity” value worked out at 2.56 and the “Ferredoxin Linear, log 10 transformed median intensity” value came to 2.56. In addition, in data set [6], the “Streptavidin Lactam, log 10 transformed median intensity” value came to 2.53 and the “Streptavidin Linear, log 10 transformed median intensity” value worked out at 2.54.

For “TFSSFAPV [library array peptide, tested lactam constrained and linear]”, in data set [2], the “FNR Lactam, log 10 transformed median intensity” value turned out to be 2.56 and the “FNR Linear, log 10 transformed median intensity” value is reported as 2.55. In data set [3], the “Diaphorase Lactam, log 10 transformed median intensity” value is 4.52 and the “Diaphorase Linear, log 10 transformed median intensity” value is 2.86. Moreover, in data set [4], the “NISC Lactam, log 10 transformed median intensity” value stood at 3.36 and the “NISC Linear, log 10 transformed median intensity” value is reported as 2.65. In data set [5], the “Ferredoxin Lactam, log 10 transformed median intensity” value is listed as 2.70 and the “Ferredoxin Linear, log 10 transformed median intensity” value stood at 2.55. Besides, in data set [6], the “Streptavidin Lactam, log 10 transformed median intensity” value is 2.53 and the “Streptavidin Linear, log 10 transformed median intensity” value is 2.53.

Turning to “TYPGVYPS [library array peptide, tested lactam constrained and linear]”, in data set [2], the “FNR Lactam, log 10 transformed median intensity” value worked out at 2.59 and the “FNR Linear, log 10 transformed median intensity” value is reported as 2.54. Besides, in data set [3], the “Diaphorase Lactam, log 10 transformed median intensity” value is listed as 4.40 and the “Diaphorase Linear, log 10 transformed median intensity” value stood at 2.75. Moreover, in data set [4], the “NISC Lactam, log 10 transformed median intensity” value is 3.16 and the “NISC Linear, log 10 transformed median intensity” value is listed as 2.58. In addition, in data set [5], the “Ferredoxin Lactam, log 10 transformed median intensity” value worked out at 2.69 and the “Ferredoxin Linear, log 10 transformed median intensity” value is recorded as 2.54. Moreover, in data set [6], the “Streptavidin Lactam, log 10 transformed median intensity” value is on record as 2.53 and the “Streptavidin Linear, log 10 transformed median intensity” value was determined as 2.51.

On to “PTSSYLN [library array peptide, tested lactam constrained and linear]”, for which, in data set [2], the “FNR Lactam, log 10 transformed median intensity” value is listed as 2.53 and the “FNR Linear, log 10 transformed median intensity” value came to 2.53. For the same compound, in data set [3], the “Diaphorase Lactam, log 10 transformed median intensity” value is recorded as 4.32 and the “Diaphorase Linear, log 10 transformed median intensity” value turned out to be 3.75. For the same compound, in data set [4], the “NISC Lactam, log 10 transformed median intensity” value was 2.63 and the “NISC Linear, log 10 transformed median intensity” value is 2.61. Further, in data set [5], the “Ferredoxin Lactam, log 10 transformed median intensity” value worked out at 2.56 and the “Ferredoxin Linear, log 10 transformed median intensity” value is 2.55. Also, in data set [6], the “Streptavidin Lactam, log 10 transformed median intensity” value was 2.52 and the “Streptavidin Linear, log 10 transformed median intensity” value worked out at 2.53.

As for “IGPNPKNN [library array peptide, tested lactam constrained and linear]”, in data set [2], the “FNR Lactam, log 10 transformed median intensity” value was determined as 2.54 and the “FNR Linear, log 10 transformed median intensity” value was 2.57. In data set [3], the “Diaphorase Lactam, log 10 transformed median intensity” value was 4.34 and the “Diaphorase Linear, log 10 transformed median intensity” value is 4.22. Besides, in data set [4], the “NISC Lactam, log 10 transformed median intensity” value was 2.65 and the “NISC Linear, log 10 transformed median intensity” value is reported as 2.78. In data set [5], the “Ferredoxin Lactam, log 10 transformed median intensity” value amounted to 2.56 and the “Ferredoxin Linear, log 10 transformed median intensity” value is given as 2.59. Besides, in data set [6], the “Streptavidin Lactam, log 10 transformed median intensity” value amounted to 2.52 and the “Streptavidin Linear, log 10 transformed median intensity” value turned out to be 2.52.
